Laboratory results reported in patent US8980926B2, “2-aminoindole compounds and methods for the treatment of malaria” (Genzyme Corporation, priority 2009, dated 2015).
Read-outs that look alike come from different tables or passages of the source.

What was measured:
P. falciparum strain 3D7 = assay: In vitro potency against P. falciparum strain 3D7 (SYBR green/DAPI); format: cell-based; details: Plasmodium falciparum
P. berghei ANKA strain = assay: In vitro potency against P. berghei ANKA; format: cell-based; details: Plasmodium berghei, read-out: Potency (IC50; nM) Plasmodium spp. Pb ANKA
[1] = Mammalian cytotoxicity, kidney epithelial; format: cell-based; details: normal human renal proximal tubule cells; read-out: Selectivity, Mammalian cytotoxicity (IC50; μM) Kidney epithelial
P. knowlesi strain H1 = assay: In vitro potency against P. knowlesi H1 in Rhesus blood cells (3H-hypoxanthine incorporation); format: cell-based; details: Plasmodium knowlesi, in Macaca mulatta, read-out: Potency (IC50; nM) Plasmodium spp. Pk H1
Description: Selected compounds were tested against P. knowlesi H1 strain parasites cultured in Rhesus blood cells as a surrogate for P. vivax infections using the method of Kocken and coworkers (Kocken, C. H., H. Ozwara, A. van der Wel, A. L. Beetsma, J. M. Mwenda, and A. W. Thomas. 2002. Plasmodium knowlesi provides a rapid in vitro and in vivo transfection system that enables double-crossover gene knockout studies. Infect Immun 70:655-660). Briefly, P. knowlesi were cultured in 2% Rhesus macaque erythrocytes (New England Primate Research Center) in RPMI culture media containing 10% Human O+ serum (Interstate Blood Bank). Schizont stage parasites were purified by floatation in 60% Percoll (GE life sciences) and allowed to reinvade to generate a synchronous population of ring stage parasites. Drug assays were performed by plating ring stage parasites at 0.5% parasitemia in triplicate, in RPMI containing 2.5 μg/ml hypoxanthine. Parasites were incubated for 24 hours with serially diluted test compounds. After 24 hours, thin smears were made to confirm that reinvasion had occurred, 0.5 μCi ^3H-labeled hypoxanthine (Perkin Elmer) were added to each well, and parasites were allowed to progress through S-phase to early schizonts. Cells were then harvested via glass filter plates and ^3H incorporation was measured by scintillation counting. Values were normalized to percentage of controls containing no drug, and IC50 values were generated (GraphPad Prism®).

Erythrocyte lysis = format: cell-based; details: erythrocytes, read-out: Selectivity, Mammalian cytotoxicity (IC50; μM) Eryth. Lysis
P. berghei N-clone = assay: In vivo efficacy against P. berghei in mice (4-day suppressive test, oral); parameters: species or system P. berghei in Swiss Albino mice; details: for Average Day of Recrudescence: Study Day; for No. Cured: animals cured/group; for Recrudescence (no. animals/total): no parasites on Day 5 but later regressed; for % Suppression Day 5: vs untreated controls
From the text: Because of ethical issues and costs, the acute P. berghei model in rodents is considered the “gold standard” for assessing anti-malarial efficacy in animal models. This model is adapted from Peters' “4-day suppressive test” (Peters, W. 1987. Chemotherapy and Drug Resistance in Malaria, p. 102-115, 2ed, vol. 1. Academic Press, Orlando, Fla.; Peters, W. 1975. The chemotherapy of rodent malaria, XXII. The value of drug-resistant strains of P. berghei in screening for blood schizontocidal activity. Ann Trop Med Parasitol 69:155-171). All studies were conducted in accordance with the Guide for the Care and Use of Laboratory Animals (National-Research-Council. 1996. Guide for the Care and Use of Laboratory Animals. National Academy Press, Washington, D.C.) and the PHS guidelines. Animals were maintained according to NIH guidelines and were allowed to acclimatize for 1 week prior to the commencement of studies. On Day 0, groups of 4-6-week old female Swiss Albino mice (n=5) were infected by tail vein injection with 0.2 ml heparinized blood diluted to contain 1×10^7 N-clone parasites. The aminoindole analogs were formulated in 1.6% lactic acid mixed sodium salt, 1% Tween 80, 9% ethanol and 20% Cerestar (hydroxypropyl β-cyclodextrin; Wacker Chimie) and were administered by oral gavage. […] Animals in the Control-group received vehicle alone. Dose concentration and frequency of dosing were based upon preliminary tolerability/exposure studies. On Day 4 post-infection (5th day of assay) blood was collected by tail-nick, and thin smear microscope slides were prepared and stained using Diff Quick®. Parasitized erythrocytes were counted and compared with the total number of erythrocytes per microscopic field to determine the percent parasitemia. A minimum of 350 erythrocytes were counted. Animals showing no detectable parasites on Day 4 were examined every 2-3 days to determine whether cure was sterile. Animals with no detectable parasites 28 days after cessation of dosing (Study Day 33) were considered cured.

hERG = molecular target: T1, hERG (Homo sapiens, UniProt Q12809); assay: hERG in Chinese hamster ovary cells; format: cell-based
T1 construct: expressed in transfected cells; host or cells: Chinese hamster ovary cells (from the earlier reading's assay name)

[2] = test system: P. falciparum Pf3D7^0087/N9; assay: In vivo efficacy against P. falciparum in humanized mice; details: b.i.d.
Description: Briefly, groups of 3 animals were infected on Day 0 with 2×10^7 P. falciparum parasites and were treated orally once per day for 4 days with 5, 25 and 100 mg/kg/day formulated as described above beginning on Day 3 post infection. In parallel, groups of 3 animals were infected on Day 0 with 1×10^7 parasites on Day 0 and received the same doses beginning 1 hr after infection. Parasitemia was assessed by FACS as previously described (Jiménez-Díaz, M.-B., et al. 2009. Cytometry Part A 75:225-235. In the same humanized murine system, efficacy was also tested against P. berghei, with animals infected on Day 0 (Jimenez-Diaz, M. B., et al. 2005. Cytometry A 67:27-36). Results are shown in Table 5.

[3] = test system: P. berghei ANKA strain GFP MRA-865; assay: In vivo efficacy against P. berghei ANKA GFP in the humanized murine system; parameters: species or system P. berghei in mice; details: b.i.d.
[4] = Mammalian cytotoxicity, dermal fibroblast; format: cell-based; details: human, normal human dermal fibroblasts (Clonetics #CC-2509); read-out: Selectivity, Mammalian cytotoxicity (IC50; μM) Dermal Fibroblast
[5] = test system: Plasmodium falciparum strain Dd2; assay: In vitro potency against P. falciparum strain Dd2; format: cell-based; details: read-out: Potency (IC50; nM) Plasmodium spp. Pf Dd2
malaria = assay: In vivo efficacy in an animal (rodent) model of malaria (FIGS. 1, 2); details: FIG. 1
[6] = read-out: Potency (IC50; nM) Plasmodium spp. Pf 3D7
[7] = reductions in parasitemia, read-out: IC50 values

T1 sequence (Q12809 whole entry): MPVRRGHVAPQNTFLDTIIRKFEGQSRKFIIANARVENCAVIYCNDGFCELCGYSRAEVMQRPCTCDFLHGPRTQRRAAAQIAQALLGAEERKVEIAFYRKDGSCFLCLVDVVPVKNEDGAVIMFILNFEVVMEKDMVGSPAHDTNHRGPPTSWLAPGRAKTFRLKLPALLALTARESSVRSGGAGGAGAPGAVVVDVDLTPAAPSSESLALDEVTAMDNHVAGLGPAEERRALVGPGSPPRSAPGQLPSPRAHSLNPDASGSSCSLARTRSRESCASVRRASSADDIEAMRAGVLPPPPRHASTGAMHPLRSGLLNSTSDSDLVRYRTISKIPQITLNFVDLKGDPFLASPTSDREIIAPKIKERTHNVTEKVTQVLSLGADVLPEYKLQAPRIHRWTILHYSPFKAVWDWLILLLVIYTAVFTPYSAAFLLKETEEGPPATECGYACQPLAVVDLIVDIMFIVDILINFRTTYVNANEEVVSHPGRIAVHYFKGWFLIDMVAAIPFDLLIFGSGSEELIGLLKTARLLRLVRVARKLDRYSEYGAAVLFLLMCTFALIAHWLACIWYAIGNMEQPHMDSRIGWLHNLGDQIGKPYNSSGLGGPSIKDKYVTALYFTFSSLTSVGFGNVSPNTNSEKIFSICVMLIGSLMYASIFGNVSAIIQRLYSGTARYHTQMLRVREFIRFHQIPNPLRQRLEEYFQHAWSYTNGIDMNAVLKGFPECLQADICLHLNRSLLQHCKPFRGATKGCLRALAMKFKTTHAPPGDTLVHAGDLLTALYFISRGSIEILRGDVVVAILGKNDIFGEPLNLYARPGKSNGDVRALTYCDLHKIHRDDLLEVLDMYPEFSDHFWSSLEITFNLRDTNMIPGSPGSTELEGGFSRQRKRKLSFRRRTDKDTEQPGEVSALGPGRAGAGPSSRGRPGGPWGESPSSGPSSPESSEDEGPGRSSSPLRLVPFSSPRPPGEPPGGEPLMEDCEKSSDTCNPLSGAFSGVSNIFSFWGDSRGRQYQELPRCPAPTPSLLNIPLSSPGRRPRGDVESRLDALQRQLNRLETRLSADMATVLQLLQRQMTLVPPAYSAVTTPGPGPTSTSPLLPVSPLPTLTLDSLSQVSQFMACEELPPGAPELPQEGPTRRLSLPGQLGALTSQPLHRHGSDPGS

## CCOc1ccc(F)cc1[C@@]1(O)C(N)=Nc2ccc(Cl)cc21 (stereo in doubt) [Compound 267]
P. falciparum strain 3D7; [6]
  IC50: 28 nM
P. falciparum strain 3D7; [7]
  IC50: 1 to 100 nM
P. berghei ANKA strain
  IC50: 331 nM
[1]
  IC50: > 195 µM
P. knowlesi strain H1
  IC50: 26 nM
Erythrocyte lysis
  IC50: > 125 µM
P. berghei N-clone; 100 mg/kg/day b.i.d. p.o.
  Average Day of Recrudescence: 14 days
  No. Cured: 0/5
  Recrudescence (no. animals/total): 2/4
  % Suppression Day 5: 95%
P. berghei N-clone; 200 mg/kg/day b.i.d. p.o.
  Average Day of Recrudescence: 12 days
  No. Cured: 3/5
  Recrudescence (no. animals/total): 2/5
  % Suppression Day 5: 100%
P. berghei N-clone; b.i.d.
  ED50 P. berghei N-clone: 32 mg/kg/day
  ED90 P. berghei N-clone: 68 mg/kg/day
P. berghei N-clone; doses of 100-200 mg/kg/day
  cures: able to affect cures
P. berghei N-clone; t.i.d.
  ED50 P. berghei N-clone: 35 mg/kg/day
  ED90 P. berghei N-clone: 58 mg/kg/day
hERG
  Selectivity, hERG (μM) CHO: 36.6 µM
[2]
  ED50 P. falciparum Pf3D7^0087/N9: 40 mg/kg/day
  ED90 P. falciparum Pf3D7^0087/N9: 74 mg/kg/day
[3]
  ED50 P. berghei ANKA strain GFP MRA-865: 19 mg/kg/day
  ED90 P. berghei ANKA strain GFP MRA-865: 30 mg/kg/day
[4]
  IC50: > 195 µM
[5]
  IC50: 65 nM

## NC1=Nc2ccc(Cl)cc2C1(O)c1ccccc1 (centres unmarked) [Compound 1]
P. falciparum strain 3D7; [6]
  IC50: 200 nM
P. falciparum strain 3D7; [7]
  IC50: 100 to 500 nM
P. berghei ANKA strain
  IC50: 1560 nM
[1]
  IC50: > 242 µM
P. knowlesi strain H1
  IC50: 336 nM
Erythrocyte lysis
  IC50: > 155 µM
P. berghei N-clone; 50 mg/kg/day b.i.d. p.o.
  Average Day of Recrudescence: 13 days
  No. Cured: 0/5
  Recrudescence (no. animals/total): 5/5
  % Suppression Day 5: 100%
hERG
  Selectivity, hERG (μM) CHO: >25 µM
malaria; 50 mg/kg dose, IP administration for four days
  in vivo efficacy (treatment of malaria): effectively treated malaria
malaria; IP administration for four days at various doses
  in vivo efficacy, dose dependence: dose-response relationship was observed
[4]
  IC50: > 242 µM
[5]
  IC50: 285 nM
